Assays:
Test in all cases: Cytostatic cell culture assay (GI50), SRB
Format in all cases: cell-based
[1] = system: BT-549; conditions: Homo sapiens, BT-549, 120 h; 5 days incubation
Method in brief: (§1)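 In this 5-day cytostatic SRB assay at 37 °C, cells attached overnight before 5-fold compound dilutions were added. Plates fixed on day 0 and day 5 were stained with SRB, and absorbance was read at 500 nm. Growth was normalized against the day-0 and untreated controls to fit GI50.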

[2] = system: HCT-15; conditions: Homo sapiens, HCT-15, 120 h; 5 days incubation
Method in brief: as §1

[3] = system: Hs-578; conditions: Hs578, 120 h; 5 days incubation
Method in brief: as §1

[4] = system: A549; conditions: Homo sapiens, A549, 120 h; 5 days incubation
Method in brief: as §1

[5] = system: NCI-H23; conditions: Homo sapiens, NCI-H23, 120 h; 5 days incubation
Method in brief: as §1

[6] = system: PC3; conditions: Homo sapiens, PC-3, 120 h; 5 days incubation
Method in brief: as §1

[7] = system: HCT-116; conditions: Homo sapiens, HCT-116, 120 h; 5 days incubation
Method in brief: as §1

[8] = system: Du-145; conditions: Homo sapiens, DU-145, 120 h; 5 days incubation
Method in brief: as §1

GI50 [1]: 33 nM
GI50 [2]: 6.7 µM
GI50 [4]: 128 nM
GI50 [5]: 2 nM
GI50 [6]: 26 nM
GI50 [7]: 41 nM
GI50 [8]: 2 nM
SMILES: CCCOc1nc(N)nc2c1ncn2CCOCP(=O)(N1CCC[C@H]1C(=O)OCC)N1CCC[C@H]1C(=O)OCC [Example 21]
GI50 [3]: 17 nM

Reference: patent US8163718B2, “Nucleoside analogues containing phosphonate or phosphonamide groups” (Gilead Sciences, Inc., priority 2008, dated 2012)
